“And” between values parts separate entries of the source, which are not always exact repeats. Equal values may be shown once.
Tested on: Mouse malignant melanoma B16-F0
Test: B16 melanoma hematogenous lung metastasis model; on Metastatic nodules, Abdominal cavity Adipose tissue: key: −: Absent; +: Present; on Metastatic nodules, Abdominal cavity Adrenal gland: key: −: Absent; +: Present; on Metastatic nodules, Abdominal cavity Diaphragm: key: −: Absent; +: Present; on Metastatic nodules, Abdominal cavity Kidney: key: −: Absent; +: Present; on Metastatic nodules, Abdominal cavity Ovary: key: −: Absent; +: Present; on Metastatic nodules, Abdominal cavity Spleen: key: −: Absent; +: Present; on Metastatic nodules, Thoracic cavity: key: −: Absent; +: Present; on Metastatic nodules, Tissue around glandual clitoris: key: −: Absent; +: Present
Format: in vivo
Details: for invasion of lymphocytes into metastatic lesions observed in cases: animals with metastatic lesions; for Metastatic nodules, Abdominal cavity Adipose tissue / Metastatic nodules, Abdominal cavity Adrenal gland / Metastatic nodules, Abdominal cavity Diaphragm / Metastatic nodules, Abdominal cavity Kidney / Metastatic nodules, Abdominal cavity Ovary / Metastatic nodules, Abdominal cavity Spleen / Metastatic nodules, Thoracic cavity / Metastatic nodules, Tissue around glandual clitoris: autopsy day 14, individual animals; for Number of lung tumor nodules, Range (mininum-maximum) / Number of mice having lung tumor nodules: day 14, N 6; for Number of lung tumor nodules: day 14, mean ± S.D.; for Number of lung tumor nodules / Number of mice having metastatic lesions: N 6; for Number of mice having metastatic lesions / Findings: Invasion of lymphocytes into melanoma metastatic lesion: lung histopathology; for Findings: Invasion of lymphocytes into melanoma metastatic lesion: individual animals; for Number of metastatic lesions per section, Large size: major diameter 0.65 mm ≦ and <1.3 mm; for Number of metastatic lesions per section, Large size / Number of metastatic lesions per section, Small size / Number of metastatic lesions per section, Total: mean ± S.D.; for Number of metastatic lesions per section, Small size: major diameter <0.65 mm, left lobe and posterior lobe
Experimental: cPA-19 and cPA-20 were used as test substances. 0.1 w/v % BSA/PBS which was prepared by dissolving Albumin, Bovine [essentially Fatty Acid Free] (BSA, Lot No. 89H7604, Sigma chemical company) in Ca^2+ and Mg^2+ free PBS (pH 7.2), was used as a medium After preparation, the solution was sterilized by filtration using a filter (0.22 μm, Millipore). Preparation was performed when used. cPA-5 was used as a positive control substance.
A medium was added in a volume required for a test substance or a positive control substance. Dissolution was performed by ultrasonication, thereby preparing a 0.16 mg/mL solution. The 0.16 mg/mL solution containing a test substance was diluted with a medium, thereby preparing 0.08 and 0.02 mg/mL solutions. All mixtures were prepared when used.
Mice were purchased from CHARLES RIVER JAPAN. INC. The line employed herein was C57BL/6NCrj (sexuality: female). The number of animals kept in stock was 60, and the age of these animals when kept in stock was 4 weeks. […] The environmental conditions for the test system were as follows:
Mouse malignant melanoma B16-F0 was used as a tumor cell. The cell was purchased from Dainippon Pharmaceutical Co., Ltd.
Dulbecco's Modified Eagle's Media containing 10% feral bovine serum and kanamycin were used for culture. […] A medium was added to stop the action of trypsin while pipetting, thereby preparing a cell suspension. The suspension was diluted by one-tenth with a medium for culturing, followed by subculturing until it reached a volume sufficient for grafting.
A cell suspension was prepared by the same technique as the subculture method. Specifically, the cells were washed with a Ca^2+ and Mg^2+ free phosphate buffer [PBS(−)], and then harvested. The harvested cells were suspended in a 10 mL of PBS(−), thereby preparing a cell suspension. The number of cells in the cell suspension was measured to obtain the total cell number. 50 μL of the cell suspension, 100 μL of 0.4% trypan blue liquid and 100 μL of PBS(−) were mixed, and then viable count was measured. The survival rate of the cells was calculated from the viable count and total cell number.
Based on the body weight on the day of the administration of the test substance, mice were grouped into 8 test groups according to the stratified continuous randomization method as shown in Table 2 below.
The mixture was administered via the caudal vein. The number of grafted cells was 5×10^5 cells/body. The dose of the test substance was 0.001, 0.004 or 0.008 mg/body, and the dose of the positive control substance was 0.008 mg/body.
On day 14 after the administration of the test substance, blood was collected from the posterior portion of the abdominal vena cava under isoflurane anesthesia. After the mice were sacrificed by blood-letting, the presence or absence of intrapleural and intraperitoneal metastatic nodules was confirmed. Lungs were extracted, and then fixed with a 10% neutral buffered formalin solution. The number of nodules resulting from lung metastasis was measured under a stereoscopic microscope (magnification: 10 times).
After the measurement of the number of nodules resulting from lung metastasis, samples were paraffin-embedded, and then thin sections were prepared. Hematoxylin eosinic-stained samples were prepared from these sections. The number of metastatic lesions in the certain portions of the left lobe and the posterior lobe was measured, and then the lesions were sorted by size. On the basis of the diameter (0.65 mm) of an object lens (×40), metastatic lesions with major diameters of less than 0.65 mm were classified as having a small size, and those with major diameters of between 0.65 mm or more and less than 1.30 mm were classified as having a large size. Furthermore, the degree of invasion of lymphocytes into metastatic lesions was confirmed qualitatively.
The representative value of each test group was denoted as mean±standard deviation (mean±S.D.). Differences in mean values were examined as follows.

[1] = 0.001 mg/body i.v., autopsy, 6 mice
[2] = 0.004 mg/body i.v., autopsy, 6 mice
[3] = 0.008 mg/body i.v., autopsy, 6 mice

carba-Ole-cPA [cPA-19]
invasion of lymphocytes into metastatic lesions observed in cases (0.001 mg/body i.v.): 1 out of 6 | Metastatic nodules, Abdominal cavity Adipose tissue (0.001 mg/body i.v.): + and − (5×) | Metastatic nodules, Abdominal cavity Adrenal gland (0.001 mg/body i.v.): + and − (5×) | Metastatic nodules, Abdominal cavity Diaphragm (0.001 mg/body i.v.): − | Metastatic nodules, Abdominal cavity Kidney (0.001 mg/body i.v.): + (2×) and − (4×) | Metastatic nodules, Abdominal cavity Ovary (0.001 mg/body i.v.): + (2×) and − (4×) | Metastatic nodules, Abdominal cavity Spleen (0.001 mg/body i.v.): − (5×) and + | Metastatic nodules, Thoracic cavity (0.001 mg/body i.v.): − (5×) and + | Metastatic nodules, Tissue around glandual clitoris (0.001 mg/body i.v.): − | cases with metastatic nodules in adipose tissue [1]: 1 case | cases with metastatic nodules in the adrenal gland [1]: 1 case | cases with metastatic nodules in the kidney [1]: 2 cases | cases with metastatic nodules in the ovary [1]: 2 cases | cases with metastatic nodules in the spleen [1]: 1 case | cases with metastatic nodules in the thoracic cavity [1]: 1 case | Number of lung tumor nodules, Range (mininum-maximum) (0.001 mg/body i.v.): 37-66 | Number of mice having lung tumor nodules (0.001 mg/body i.v.): 6 | Number of lung tumor nodules (0.001 mg/body i.v.): 54 ± 12 | Number of mice having metastatic lesions (0.001 mg/body i.v.): 6 | Findings: Invasion of lymphocytes into melanoma metastatic lesion (0.001 mg/body i.v.): − (5×) and + | Number of metastatic lesions per section, Large size (0.001 mg/body i.v.): 0.7 ± 0.8 | Number of metastatic lesions per section, Small size (0.001 mg/body i.v.): 3.0 ± 1.3 | Number of metastatic lesions per section, Total (0.001 mg/body i.v.): 3.7 ± 1.8 | number of metastatic nodules of B16-F0 in the lungs versus medium group (in words) (0.004 mg/body i.v.): significant decrease in the number of metastatic nodules | invasion of lymphocytes into metastatic lesions observed in cases (0.004 mg/body i.v.): no invasions were observed in 2 cases | Metastatic nodules, Abdominal cavity Adipose tissue (0.004 mg/body i.v.): − (5×) and + | Metastatic nodules, Abdominal cavity Adrenal gland (0.004 mg/body i.v.): − (5×) and + | Metastatic nodules, Abdominal cavity Diaphragm (0.004 mg/body i.v.): − | Metastatic nodules, Abdominal cavity Kidney (0.004 mg/body i.v.): − | Metastatic nodules, Abdominal cavity Ovary (0.004 mg/body i.v.): − | Metastatic nodules, Abdominal cavity Spleen (0.004 mg/body i.v.): + and − (5×) | Metastatic nodules, Thoracic cavity (0.004 mg/body i.v.): − | Metastatic nodules, Tissue around glandual clitoris (0.004 mg/body i.v.): − | cases with metastatic nodules in adipose tissue [2]: 1 case | cases with metastatic nodules in the adrenal gland [2]: 1 case | cases with metastatic nodules in the spleen [2]: 1 case | metastatic nodules in the thoracic cavity [2]: no metastatic nodules were observed | Number of lung tumor nodules, Range (mininum-maximum) (0.004 mg/body i.v.): 2-6 | Number of mice having lung tumor nodules (0.004 mg/body i.v.): 6 | Number of lung tumor nodules (0.004 mg/body i.v.): 4 ± 2 | Number of mice having metastatic lesions (0.004 mg/body i.v.): 2 & | Findings: Invasion of lymphocytes into melanoma metastatic lesion (0.004 mg/body i.v.): − | Number of metastatic lesions per section, Large size (0.004 mg/body i.v.): 0 ± 0!! | Number of metastatic lesions per section, Small size (0.004 mg/body i.v.): 0.3 ± 0.5 | Number of metastatic lesions per section, Total (0.004 mg/body i.v.): 0.3 ± 0.5! | metastasis / number of metastatic nodules in the lungs versus medium group (in words) (0.008 mg/body i.v.): almost completely suppressed metastasis | Metastatic nodules, Abdominal cavity Adipose tissue (0.008 mg/body i.v.): − | Metastatic nodules, Abdominal cavity Adrenal gland (0.008 mg/body i.v.): − | Metastatic nodules, Abdominal cavity Diaphragm (0.008 mg/body i.v.): − | Metastatic nodules, Abdominal cavity Kidney (0.008 mg/body i.v.): − | Metastatic nodules, Abdominal cavity Ovary (0.008 mg/body i.v.): − | Metastatic nodules, Abdominal cavity Spleen (0.008 mg/body i.v.): − (5×) and + | Metastatic nodules, Thoracic cavity (0.008 mg/body i.v.): − | Metastatic nodules, Tissue around glandual clitoris (0.008 mg/body i.v.): − | cases with metastatic nodules in the spleen [3]: 1 case | metastatic nodules in the thoracic cavity [3]: no metastatic nodules were observed | Number of lung tumor nodules, Range (mininum-maximum) (0.008 mg/body i.v.): 0 | Number of mice having lung tumor nodules (0.008 mg/body i.v.): 0 && | Number of lung tumor nodules (0.008 mg/body i.v.): 0 ± 0 | Number of mice having metastatic lesions (0.008 mg/body i.v.): 0 && | Number of metastatic lesions per section, Large size (0.008 mg/body i.v.): 0 ± 0!! | Number of metastatic lesions per section, Small size (0.008 mg/body i.v.): 0 ± 0! | Number of metastatic lesions per section, Total (0.008 mg/body i.v.): 0 ± 0!! | number of mice having intrapleural or intraperitoneal metastatic nodules, dose dependence (in words) (0.001, 0.004 and 0.008 mg/body i.v.): decreased as the dose increased | action of suppressing the lung metastasis of B16-F0 compared with cPA-5 (0.004 and 0.008 mg/body i.v.): stronger than that of cPA-5

— patent US20040214799A1, “Cancerous metastasis inhibitors containing carbacyclic phosphatidic acid derivatives” (priority 2001, published 2004)
